# From patent US20170027896A1, “METHODS AND COMPOSITIONS FOR THE TREATMENT OF VASCULAR MALFORMATION” (IFOM - FONDAZIONE ISTITUTO FIRC DI ONCOLOGIA MOLECOLARE, priority 2014, published 2017)
# “Also recorded” adds a separate entry of the source.
# Tests used:
# [1] = tested on: CCM3-knockout brain endothelial cells in primary culture; assay: rtPCR of b-catenin target genes in primary cultures of CCM3-knockout brain endothelial cells; type: cell-based, mouse; parameters: dose or concentration left out as unconfirmed; conditions: 48 h
# Text: Endothelial cells from the CCM3-flox/flox mice (8-10 weeks old) were isolated from the brain as previously described^13. Recombination of the floxed CCM3 gene was induced by treating the cells at culture day 1 with the AdenoCre viral vector, as previously described^59. The control endothelial cells were an aliquot of the same endothelial cell preparation treated with AdenoGFP, instead of AdenoCre. The cells were then maintained in culture for up to a further 7 days before analysis, as described in the main text. Drug treatments were for 48 h before the processing of the cells. Drugs were added to confluent cells for 48 h before the indicated assays. The final concentrations used were: […] (all from Sigma-Aldrich). As all of these were dissolved in DMSO, control treatment (vehicle) was 0.1% DMSO final concentration, as for drug treatment. RNA extraction was performed with RNeasy kits (74106; Promega). The RNA (1 μg) was reverse transcribed with random hexamers (High Capacity cDNA Archive kits; Applied Biosystems). […] For each sample, the expression levels were determined with the comparative threshold cycle (Ct) method, and normalized to the housekeeping genes encoding 18S and glyceraldehyde-3-phosphate dehydrogenase (GAPDH). […]
# CCM3-ECKO mice = assay: Bleeding and mortality in drug-treated CCM3-ECKO mice; conditions: 30 mg/kg body weight intragastrically, daily
# Method: Sulindac sulfide (Sigma) and sulindac sulfone (Sigma) were both dissolved in DMSO and further diluted 1:50 in corn oil. They were administered intragastrically, daily (30 mg/kg body weight), starting one day after the induction of recombination. The control mice were treated in parallel with vehicle only (corn oil plus 2% DMSO).
# [2] = tested on: CCM3-knockout endothelial cell line; assay: rtPCR of b-catenin target gene and progenitor/EndMT markers in CCM3-knockout endothelial cell line; type: cell-based, mouse; conditions: 48 h; 135 mM sulindac sulfide, 125 mM sulindac sulfone, 200 mM silibinin, 250 mM salinomycin
# Method: In some experiments, endothelial cell lines from the lungs of CCM3-flox/flox mice (8-10 weeks old) were immortalized in culture through retroviral expression of polyoma middle T gene^60. […] These cells were then maintained in culture for up to 25 passages without detectable changes in the effects of this CCM3 ablation.
# Drugs were added to confluent cells for 48 h before the indicated assays. The final concentrations used were: […] (all from Sigma-Aldrich). As all of these were dissolved in DMSO, control treatment (vehicle) was 0.1% DMSO final concentration, as for drug treatment.
# RNA extraction was performed with RNeasy kits (74106; […]). The RNA (1 μg) was reverse transcribed with random hexamers (High Capacity cDNA Archive kits; Applied Biosystems). The cDNA was amplified with TaqMan gene expression assays (Applied Biosystems) using a 7900 HT thermocycler (ABI/Prism). For each sample, the expression levels were determined with the comparative threshold cycle (Ct) method, and normalized to the housekeeping genes encoding 18S and glyceraldehyde-3-phosphate dehydrogenase (GAPDH). For amplification, the following probes (Applied Biosystems) that have been validated to recognize the mouse transcripts in rtPCR were used: Axin2, Nkd1, Lef1, ccnd1, cMyc-Klf4, Ly6a, S100a4, Id1, Cdh2, Acta2, CD44. The probes to identify the CCM3 mRNA transcript were custom designed, as: forward, […] (SEQ ID No. 12); reverse, GCTCTGGCCGCTCAATCA (SEQ ID No. 13); reporter sequence, […] (SEQ ID No. 14).
# [3] = tested on: CCM3-knockout brain endothelial cells in primary culture; assay: Immunostaining of CCM3-knockout brain endothelial cells in primary culture; type: cell-based, mouse; conditions: 48 h
# Text: Endothelial cells from the CCM3-flox/flox mice (8-10 weeks old) were isolated from the brain as previously described^13. Recombination of the floxed CCM3 gene was induced by treating the cells at culture day 1 with the AdenoCre viral vector, as previously described^59. The control endothelial cells were an aliquot of the same endothelial cell preparation treated with AdenoGFP, instead of AdenoCre. The cells were then maintained in culture for up to a further 7 days before analysis, as described in the main text. Drug treatments were for 48 h before the processing of the cells. Drugs were added to confluent cells for 48 h before the indicated assays. The final concentrations used were: […] (all from Sigma-Aldrich). As all of these were dissolved in DMSO, control treatment (vehicle) was 0.1% DMSO final concentration, as for drug treatment. Cells cultured in vitro were fixed and stained as described previously^46. The following antibodies were used: […] (hamster; MAB1398Z, Millipore); anti-b-galactosidase (chicken; ab9361, Abcam); anti-VE-cadherin (rat monoclonal; 550548, BD Biosciences); anti-VE-cadherin (goat; sc-6458, Santa Cruz); anti-active-b-catenin (mouse monoclonal clone 8E7) dephosphorylated on […] and Thr41, Millipore); anti-total-b-catenin (mouse monoclonal; […] AF3158, R&D); anti-CD44 (rat; 553131, BD Biosciences); anti-ID1 (rabbit; sc-488, Santa Cruz); anti-aSMA (mouse monoclonal; […], Sigma); anti-GFP (rabbit; A-6455, Invitrogen); anti-podocalyxin (goat; AF1556, R&D); anti-phospho-histone H3 (rabbit; ab51776, Millipore); anti-CCM3 (rabbit; Eurogentec); anti-p-Smad1 (rabbit; 9516, Cell Signaling); anti-endomucin (rabbit; sc-65495, Santa Cruz); anti-α-tubulin (mouse monoclonal; T9026, Sigma).
compound,measurement,setting,value
"CSc1ccc(/C=C2/C(C)=C(CC(=O)O)c3cc(F)ccc32)cc1 [sulindac sulfide, (Z)-5-Fluoro-2-methyl-1-[4-(methylthio)benzylidene]indene-3-acetic acid]","expression of endogenous b-catenin target genes (Klf4, Ly6a, S100a4, Id1; rtPCR)",[1],effectively inhibited
same,bleeding from vascular lesions or mortality versus vehicle-treated mice,CCM3-ECKO mice,did not observe either increased bleeding from vascular lesions or mortality
same,"inhibition of transcription of Axin2, Klf4 and S100a4 (rtPCR)",[2],greatest inhibition; also recorded: most effective
same,VE-cadherin at cell-cell contacts,[3],more localized to cell-cell contacts
same,nuclear localization of active b-catenin,[3],strongly inhibited
same,overexpression of Klf4 and S100a4 proteins,[3],inhibition; also recorded: inhibited
